{"source": "ChEMBL document CHEMBL4376816", "about": "“Discovery of the Oral Leukotriene C4 Synthase Inhibitor (1S,2S)-2-({5-[(5-Chloro-2,4-difluorophenyl)(2-fluoro-2-methylpropyl)amino]-3-methoxypyrazin-2-yl}carbonyl)cyclopropanecarboxylic Acid (AZD9898) as a New Treatment for Asthma” (J Med Chem, 2019)", "key": {"[1]": {"test": "Fraction unbound in Beagle dog plasma by equilibrium dialysis based LC-MS analysis", "assay_type": "ADME, cell-free, Canis lupus familiaris"}, "[2]": {"test": "Effective half life in Beagle dog at 1 mg/kg, iv infusion or 2 mg/kg, po via gavage after 48 hrs", "assay_type": "ADME, organism-based, Canis lupus familiaris", "conditions": "in vivo, read-out: t1/2eff (converted)"}, "[3]": {"test": "Oral bioavailability in Beagle dog at 2 mg/kg via gavage after 48 hrs", "assay_type": "ADME, organism-based, Canis lupus familiaris", "conditions": "in vivo"}, "[4]": {"test": "Oral bioavailability in Han Wistar rat at 1 mg/kg after 24 hrs", "assay_type": "ADME, organism-based", "conditions": "in vivo"}, "[5]": {"test": "Intrinsic clearance in human hepatocytes at 1 uM assessed as per million cells after 2 to 60 mins by LC-MS/MS analysis", "assay_type": "ADME, cell-based, Hepatocyte", "conditions": "read-out: CLH"}, "Rattus norvegicus": {"tested_on": "Rattus norvegicus", "test": "In vivo inhibition of LTC4S in po dosed Sprague-Dawley rat assessed as unbound drug concentration required for inhibition of calcium ionophore A23187-induced cysteinyl leukotrienes production in BAL fluid by LC-MS/MS analysis", "assay_type": "functional"}, "[6]": {"test": "Thermodynamic solubility of compound in pH 7.4 PBS at 1 mg/ml incubated for 24 hrs under shaking condition by LC-MS/MS analysis", "assay_type": "physicochemical", "conditions": "read-out: Therm_solubility"}, "[7]": {"test": "Oral bioavailability in cynomolgus monkey at 2 mg/kg after 48 hrs", "assay_type": "ADME, organism-based, Macaca fascicularis", "conditions": "in vivo"}, "[8]": {"test": "Clearance in cynomolgus monkey at 1 mg/kg, iv or 2 mg/kg, po after 48 hrs", "assay_type": "ADME, organism-based, Macaca fascicularis", "conditions": "in vivo"}, "[9]": {"test": "Volume of distribution at steady state in Beagle dog at 1 mg/kg, iv infusion or 2 mg/kg, po via gavage after 48 hrs", "assay_type": "ADME, organism-based, Canis lupus familiaris", "conditions": "in vivo, read-out: Vdss"}, "[10]": {"test": "Displacement of [3H]-GABA/[3]-muscimol from GABA gated chloride channel in Sprague-Dawley rat cortical synoptic membranes by liquid scintillation analysis"}, "[11]": {"test": "Cmax in po dosed rat at NOAEL measured after 7 days", "assay_type": "ADME, organism-based", "parameters": "route oral", "conditions": "in vivo"}, "Cytochrome P450 1A2": {"biological_target": "T1, Cytochrome P450 1A2 (Homo sapiens, UniProt P05177)", "T1 sequence (P05177 whole entry)": "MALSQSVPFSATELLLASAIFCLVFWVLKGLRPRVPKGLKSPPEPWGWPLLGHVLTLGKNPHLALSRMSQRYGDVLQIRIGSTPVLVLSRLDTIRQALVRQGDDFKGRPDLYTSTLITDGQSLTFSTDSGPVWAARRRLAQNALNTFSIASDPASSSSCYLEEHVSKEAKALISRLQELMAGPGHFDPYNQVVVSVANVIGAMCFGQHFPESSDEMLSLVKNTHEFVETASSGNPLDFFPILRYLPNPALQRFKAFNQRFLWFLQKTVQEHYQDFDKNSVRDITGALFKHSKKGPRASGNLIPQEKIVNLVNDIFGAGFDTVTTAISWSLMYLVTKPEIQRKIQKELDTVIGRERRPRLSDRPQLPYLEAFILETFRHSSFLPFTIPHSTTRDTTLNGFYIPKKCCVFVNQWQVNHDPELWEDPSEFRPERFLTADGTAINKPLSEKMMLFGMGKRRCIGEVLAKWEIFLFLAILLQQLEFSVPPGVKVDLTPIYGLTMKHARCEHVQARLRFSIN", "test": "Inhibition of recombinant human CYP1A2 using coumarin based substrate by fluorescence assay", "assay_type": "ADME"}, "Cytochrome P450 3A4": {"biological_target": "Cytochrome P450 3A4 (Homo sapiens, UniProt P08684)", "sequence (P08684 whole entry)": "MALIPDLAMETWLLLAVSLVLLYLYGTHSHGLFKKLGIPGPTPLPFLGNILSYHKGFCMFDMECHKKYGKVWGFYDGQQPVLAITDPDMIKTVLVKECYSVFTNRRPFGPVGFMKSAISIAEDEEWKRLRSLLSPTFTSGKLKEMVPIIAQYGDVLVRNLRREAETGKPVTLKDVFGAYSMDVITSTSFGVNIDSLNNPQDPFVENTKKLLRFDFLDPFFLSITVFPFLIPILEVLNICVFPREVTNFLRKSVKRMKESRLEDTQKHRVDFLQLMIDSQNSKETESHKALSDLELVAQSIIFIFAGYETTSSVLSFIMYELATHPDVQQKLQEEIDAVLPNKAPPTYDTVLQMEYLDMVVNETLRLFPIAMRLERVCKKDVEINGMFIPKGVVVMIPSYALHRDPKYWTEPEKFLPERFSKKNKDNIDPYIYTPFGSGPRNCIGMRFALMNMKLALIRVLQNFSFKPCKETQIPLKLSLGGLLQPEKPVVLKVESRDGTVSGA", "test": "Inhibition of recombinant human CYP3A4 expressed in Escherichia coli using coumarin based substrate by fluorescence assay", "assay_type": "ADME"}, "[12]": {"biological_target": "T2, Leukotriene C4 synthase (Homo sapiens) (UniProt Q16873)", "T2 sequence (whole entry)": "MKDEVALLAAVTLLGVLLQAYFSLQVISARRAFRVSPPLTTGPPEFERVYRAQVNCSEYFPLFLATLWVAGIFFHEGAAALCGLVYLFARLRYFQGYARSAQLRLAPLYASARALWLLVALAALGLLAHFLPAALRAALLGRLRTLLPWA", "test": "Inhibition of LTC4S in healthy human whole blood assessed as inhibition of calcium ionophore A23187 stimulated cysteinyl leukotrienes production preincuabted for 30 mins followed by calcium ionophore stimulation and measured after 10 mins by LC-MS analysis", "assay_type": "tissue-based"}, "Blood": {"tested_on": "Blood", "test": "Preservation of LXA4 level in calcium ionophore A23187-stimulated asthmatic human whole blood preincubated for 30 mins followed by calcium ionophore A23187 stimulation and measured after 60 mins by LC-MS analysis", "assay_type": "functional, tissue-based"}, "[13]": {"biological_target": "Voltage-dependent L-type calcium channel subunit alpha-1C (Homo sapiens, UniProt Q13936)", "sequence (Q13936 whole entry)": "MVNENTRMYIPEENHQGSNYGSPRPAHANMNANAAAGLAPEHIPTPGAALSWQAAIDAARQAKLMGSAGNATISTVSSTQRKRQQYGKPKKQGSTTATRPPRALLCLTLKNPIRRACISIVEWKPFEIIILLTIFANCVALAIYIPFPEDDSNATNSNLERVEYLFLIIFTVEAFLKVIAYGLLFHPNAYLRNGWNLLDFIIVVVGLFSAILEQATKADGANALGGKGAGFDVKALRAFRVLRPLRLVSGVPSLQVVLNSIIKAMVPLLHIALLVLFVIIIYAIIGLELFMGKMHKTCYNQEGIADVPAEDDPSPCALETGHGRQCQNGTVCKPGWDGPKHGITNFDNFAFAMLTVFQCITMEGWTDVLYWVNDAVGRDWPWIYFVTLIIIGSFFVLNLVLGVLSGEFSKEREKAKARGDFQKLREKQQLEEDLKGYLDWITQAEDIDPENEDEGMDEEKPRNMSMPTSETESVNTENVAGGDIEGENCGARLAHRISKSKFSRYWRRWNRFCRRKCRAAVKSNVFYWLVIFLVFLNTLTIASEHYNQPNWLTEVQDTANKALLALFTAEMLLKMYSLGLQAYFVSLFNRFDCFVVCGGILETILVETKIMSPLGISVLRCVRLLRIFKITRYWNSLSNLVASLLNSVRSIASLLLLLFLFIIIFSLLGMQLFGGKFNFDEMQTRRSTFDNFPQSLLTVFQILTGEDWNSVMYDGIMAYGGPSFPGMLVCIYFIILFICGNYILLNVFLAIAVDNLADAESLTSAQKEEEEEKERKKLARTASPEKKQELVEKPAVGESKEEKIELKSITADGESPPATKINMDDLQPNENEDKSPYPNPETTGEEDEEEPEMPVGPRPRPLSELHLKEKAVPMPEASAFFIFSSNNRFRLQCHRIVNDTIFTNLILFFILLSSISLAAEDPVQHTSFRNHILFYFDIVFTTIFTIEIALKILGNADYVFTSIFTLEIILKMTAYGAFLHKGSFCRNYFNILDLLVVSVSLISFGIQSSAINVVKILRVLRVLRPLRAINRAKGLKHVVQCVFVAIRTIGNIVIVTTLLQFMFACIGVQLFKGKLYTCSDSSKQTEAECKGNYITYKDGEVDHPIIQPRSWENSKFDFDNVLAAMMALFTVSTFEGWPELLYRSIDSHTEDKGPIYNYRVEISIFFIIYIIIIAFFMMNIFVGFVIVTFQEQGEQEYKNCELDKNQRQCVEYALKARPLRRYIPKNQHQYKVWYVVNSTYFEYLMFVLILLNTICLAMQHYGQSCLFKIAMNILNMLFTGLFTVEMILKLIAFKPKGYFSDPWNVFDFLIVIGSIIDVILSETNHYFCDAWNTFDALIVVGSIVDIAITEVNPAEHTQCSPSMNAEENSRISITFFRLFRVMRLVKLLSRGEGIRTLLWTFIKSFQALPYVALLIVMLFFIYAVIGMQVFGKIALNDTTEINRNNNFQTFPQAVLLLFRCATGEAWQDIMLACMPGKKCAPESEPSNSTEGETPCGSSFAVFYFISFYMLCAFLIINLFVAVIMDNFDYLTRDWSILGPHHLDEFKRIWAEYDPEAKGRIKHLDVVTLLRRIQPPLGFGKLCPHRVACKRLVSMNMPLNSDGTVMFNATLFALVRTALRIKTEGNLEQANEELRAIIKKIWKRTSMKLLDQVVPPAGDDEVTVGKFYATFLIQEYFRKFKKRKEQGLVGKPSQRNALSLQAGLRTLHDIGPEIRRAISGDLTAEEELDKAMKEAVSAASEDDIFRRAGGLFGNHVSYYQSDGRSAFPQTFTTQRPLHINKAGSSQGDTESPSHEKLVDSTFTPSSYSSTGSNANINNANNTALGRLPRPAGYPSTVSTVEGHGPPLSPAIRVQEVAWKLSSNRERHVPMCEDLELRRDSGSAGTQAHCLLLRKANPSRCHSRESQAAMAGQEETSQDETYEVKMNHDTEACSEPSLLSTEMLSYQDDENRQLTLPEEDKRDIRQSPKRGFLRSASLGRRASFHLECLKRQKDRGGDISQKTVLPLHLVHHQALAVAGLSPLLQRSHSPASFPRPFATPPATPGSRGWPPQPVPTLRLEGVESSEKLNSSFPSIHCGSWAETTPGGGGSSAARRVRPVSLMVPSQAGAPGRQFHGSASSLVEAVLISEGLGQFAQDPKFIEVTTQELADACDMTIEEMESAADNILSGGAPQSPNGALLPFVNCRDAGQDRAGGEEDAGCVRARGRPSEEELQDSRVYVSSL", "test": "Inhibition of human Cav1.2 expressed in CHOK1 cells at < 33 uM at -65 mV holding potential by Ionwork-based analysis", "assay_type": "cell-based"}, "[14]": {"biological_target": "T3, Potassium voltage-gated channel subfamily KQT member 1 (Homo sapiens, UniProt P51787)", "T3 sequence (P51787 whole entry)": "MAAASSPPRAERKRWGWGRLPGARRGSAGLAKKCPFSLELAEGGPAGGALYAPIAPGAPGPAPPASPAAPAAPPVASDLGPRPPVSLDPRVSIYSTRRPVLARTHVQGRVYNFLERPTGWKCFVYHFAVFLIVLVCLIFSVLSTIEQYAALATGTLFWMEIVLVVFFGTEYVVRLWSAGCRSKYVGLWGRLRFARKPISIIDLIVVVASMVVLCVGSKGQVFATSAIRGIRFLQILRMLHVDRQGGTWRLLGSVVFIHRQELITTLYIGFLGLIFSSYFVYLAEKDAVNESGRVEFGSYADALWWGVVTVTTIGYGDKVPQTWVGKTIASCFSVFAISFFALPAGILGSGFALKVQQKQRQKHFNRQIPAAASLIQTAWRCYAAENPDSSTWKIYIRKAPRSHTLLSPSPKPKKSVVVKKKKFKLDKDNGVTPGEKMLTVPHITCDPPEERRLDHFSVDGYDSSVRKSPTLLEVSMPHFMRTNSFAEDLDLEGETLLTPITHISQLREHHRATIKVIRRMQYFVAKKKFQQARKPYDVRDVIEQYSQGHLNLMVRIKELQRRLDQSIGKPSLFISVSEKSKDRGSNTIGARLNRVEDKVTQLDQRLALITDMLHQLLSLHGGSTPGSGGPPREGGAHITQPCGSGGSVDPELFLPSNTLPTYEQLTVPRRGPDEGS", "test": "Inhibition of human KvLQT1 expressed in CHOK1 cells at < 33 uM at -80 mV holding potential by Ionwork-based analysis", "assay_type": "cell-based"}, "[15]": {"biological_target": "T4, A-type potassium channel modulatory protein KCNIP2 (Homo sapiens) (UniProt Q9NS61)", "T4 sequence (whole entry)": "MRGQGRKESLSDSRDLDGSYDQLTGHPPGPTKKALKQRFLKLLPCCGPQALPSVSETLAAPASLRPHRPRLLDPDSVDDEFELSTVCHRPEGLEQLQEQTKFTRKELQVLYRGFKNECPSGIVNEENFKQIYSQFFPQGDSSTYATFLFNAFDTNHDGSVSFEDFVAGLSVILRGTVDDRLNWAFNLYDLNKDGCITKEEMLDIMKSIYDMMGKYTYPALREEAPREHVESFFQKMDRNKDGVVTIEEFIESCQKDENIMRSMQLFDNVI", "test": "Inhibition of human KvChIP2 expressed in CHOK1 cells at < 33 uM at -90 mV holding potential by Ionwork-based analysis", "assay_type": "cell-based"}, "[16]": {"test": "Genotoxicity in Salmonella typhimurium by Ames test", "assay_type": "toxicity", "conditions": "salmonella enterica subsp. enterica serovar typhimurium"}}, "note": "Activity calls are given as the source filed them. No cut-off for these calls is given here.", "data": [{"smiles": "COc1nc(N(CC(C)(C)F)c2cc(Cl)c(F)cc2F)cnc1C(=O)[C@H]1C[C@@H]1C(=O)O", "note": "[AZD-9898]", "values": [{"measurement": "fraction unbound", "setting": "[1]", "result": 0.059}, {"measurement": "half-life", "setting": "[2]", "result": 6.1, "unit": "h"}, {"measurement": "bioavailability", "setting": "[3]", "result": 100, "unit": "%"}, {"measurement": "bioavailability", "setting": "[4]", "result": 100, "unit": "%"}, {"measurement": "hepatocyte CLint at 1 µM", "setting": "[5]", "result": "< 1.2", "unit": "µL/min/1e6 cells"}, {"measurement": "fEC50", "setting": "Rattus norvegicus", "result": 34, "unit": "nM"}, {"measurement": "solubility thermodynamic at 24 h", "setting": "[6]", "result": 2080, "unit": "µM"}, {"measurement": "bioavailability", "setting": "[7]", "result": 90, "unit": "%"}, {"measurement": "clearance", "setting": "[8]", "result": 0.6, "unit": "mL/min/kg"}, {"measurement": "Vd", "setting": "[9]", "result": 1, "unit": "L/kg"}, {"measurement": "IC50", "setting": "[10]", "result": "> 100", "unit": "µM"}, {"measurement": "Cmax at […]", "setting": "[11]", "result": 349, "unit": "µM"}, {"measurement": "IC50", "setting": "Cytochrome P450 1A2", "result": "> 30", "unit": "µM"}, {"measurement": "IC50", "setting": "Cytochrome P450 3A4", "result": "> 30", "unit": "µM"}, {"measurement": "inhibition", "setting": "[12]", "result": "Active"}, {"measurement": "Activity", "setting": "Blood", "result": "Dose-dependent effect"}, {"measurement": "inhibition (INH)", "setting": "[13]", "result": "Not Active"}, {"measurement": "inhibition (INH)", "setting": "[14]", "result": "Not Active"}, {"measurement": "inhibition", "setting": "[15]", "result": "inactive"}, {"measurement": "Activity", "setting": "[16]", "result": "Non-Toxic"}]}]}
